Measured values as given in USRE46698E1, “Use of cyclohexanol derivatives as antimicrobial active compounds” (MERCK PATENT GMBH, priority 2011, dated 2018).

Experiments:
Echerichia coli = assay: Antimicrobial action, microbe count (Example 6); type: cell-based; settings: H2O (12% of ethanol); for Δlog: t24 h
Description: (§1) For sample preparation, the substances being investigated are each dissolved or homogeneously dispersed in an amount of 1.0% in a water/ethanol mixture (12% of ethanol) and subsequently diluted with bacteria suspension in the ratio 1 to 2. P. acnes (ATCC 6919) is pre-incubated under anaerobic conditions for 48 h at 35° C. on RMC agar (Merck 1.05410). A bacteria suspension having an optical density (OD) of about 1.5 is subsequently prepared in RMC broth (Merck 1.05411, double-concentrated). 150 μl of freshly prepared sample and 100 μl of paraffin are added to 150 μl of bacteria suspension per well. The optical density is determined over the course of time at 37° C. using a Bioscreen C™ analyser compared with the negative control (=vehicle without test substance). Compared with the negative control, reduced optical densities confirm growth-inhibiting substance actions.
(§2) For sample preparation, the substances being investigated are each dissolved or homogeneously dispersed in an amount of 1.0% in a water/ethanol mixture (12% of ethanol) (=sample). A bacteria suspension of S. epidermidis (ATCC 12228) having an optical density of 1.0 in CASO broth (Merck 1.05459) is diluted 1:10000 with CASO broth. 500 μl of sample are added to 500 μl of bacteria suspension, and the mixture is incubated at 35° C. for 24 h. After the incubation, the test batches are diluted to −6 in 10 unit steps, and 0.1 ml of each is plated-out on CASO agar (Merck 1.05458) and incubated at 35° C. for 24 h.
(§3) In order to determine the initial microbe count, 0.1 ml of the bacteria suspension used are plated-out on CASO agar (Merck 1.05458) and incubated at 35° C. for 24 h.
(§4) The colonies are subsequently counted, and the microbe count per ml is determined compared with the negative control (12% of ethanol in water).
(§5) The procedure corresponds to that described in Examples 4 and 5 using the microorganisms shown below. The concentrations indicated are the final use concentrations. In order to prepare the stock solution, double the final concentration were prepared in the solvent indicated. This was subsequently diluted 1:2 with the corresponding microbe suspension. In the case of Aspergillus brasiliensis, the microbe count determination was exceptionally carried out after 48 h.

P. acnes (ATCC 6919) = assay: Growth inhibition by optical density, Bioscreen C (Example 4); type: cell-based, Propionibacterium acnes; settings: 1.0% sample in water/ethanol (12% of ethanol) diluted 1 to 2 with bacteria suspension; 37° C.; negative control 1.0
Description: as §1
(§6) Result as optical density of the bacteria suspension after an exposure time of 20 hours: […]

[1] = Rancimate assay, antioxidative capacity (Example 1); settings: 0.1% w/w in soya oil; 120° C.; input of air 201/h
Description: The antioxidative capacity of substances I-9, I-10 and I-2 is determined in the so-called Rancimate assay. The comparative substances used are 4-t-butyl-1-cyclohexanol and tocopherol. The positive standard employed is BHT. The measurement parameter is the time duration (induction time) of the increase in the conductivity of unstabilised soya oil on exposure to air at elevated temperature. The longer the induction time, the greater the stabilising or antioxidant action. The following boundary conditions were maintained: input of air 201/h; temperature 120° C. and sample concentrations of 0.1% w/w each in soya oil. For each test substance, a relative antioxidation-protection factor is determined, which corresponds to the ratio of the induction times with and without test substance: […]

[2] = test system: S. epidermidis (ATCC 12228); assay: Microbe count determination, bacteriostatic or bactericidal action (Example 5); type: cell-based, Staphylococcus epidermidis; settings: 24 h at 35° C.; for Final microbe count: 1.0% sample in 12% ethanol, 500 μl + 500 μl bacteria suspension, initial count 3.8 × 10^4, negative control 5.0 × 10^7; for Note: bacteriostatic or bactericidal action: S. epidermidis
Description: as §2, §3, §4

[3] = test system: S. epidermidis (ATCC 12228); assay: Growth inhibition by optical density, Bioscreen C (Example 3); type: cell-based, Staphylococcus epidermidis; settings: 1.0% sample in water/ethanol (12% of ethanol) diluted 1 to 2 with bacteria suspension, 37° C.
Description: For sample preparation, the substances being investigated are each dissolved or homogeneously dispersed in an amount of 1.0% in a water/ethanol mixture (12% of ethanol) and subsequently diluted with bacteria suspension in the ratio 1 to 2. S. epidermidis (ATCC 12228) is pre-incubated under aerobic conditions for 24 h at 35° C. on CASO agar (Merck 1.05458). A bacteria suspension having an optical density (OD) of about 1.0 is subsequently prepared in CASO broth (Merck 1.05459, double-concentrated) and diluted again 1:10 in CASO broth. 150 μl of freshly prepared sample are added to 150 μl of bacteria suspension per well. The optical density is determined over the course of time at 37° C. using a Bioscreen C™ analyser compared with the negative control (=vehicle without test substance). Compared with the negative control, reduced optical densities confirm growth-inhibiting substance actions
as §6

Candida albicans = assay: Antimicrobial action, microbe count (Example 6); type: cell-based; settings: for Δlog: t24 h
Description: as §2, §3, §4, §5

Staphylococcus aureus = assay: Antimicrobial action, microbe count (Example 6); type: cell-based; settings: conc. 0.5%, H2O (12% of ethanol); for Δlog: t24 h
Description: as §1, §2, §3, §4, §5

Salmonella enterica = assay: Antimicrobial action, microbe count (Example 6); type: cell-based; settings: H2O (12% of ethanol); for Δlog: t24 h
Description: as §1, §2, §3, §4, §5

[4] = test system: Staphylococcus epidermidis; assay: Antimicrobial action, microbe count (Example 6); type: cell-based; settings: conc. 0.5%, H2O (12% of ethanol), count t0 3.4 × 10^4
Description: as §1, §2, §3, §4, §5

Pseudomonas aeruginosa = assay: Antimicrobial action, microbe count (Example 6); type: cell-based; settings: conc. 0.5%, H2O (12% of ethanol), count t0 6.8 × 10^4
Description: as §1, §2, §3, §4, §5

Propionibacterium acnes = assay: Antimicrobial action, microbe count (Example 6); type: cell-based; settings: for Δlog: t24 h
Description: as §1, §2, §3, §4, §5

Serratia marcescens = assay: Antimicrobial action, microbe count (Example 6); type: cell-based; settings: conc. 0.5%, H2O (12% of ethanol), count t0 6.8 × 10^4
Description: as §1, §2, §3, §4, §5

Corynebacterium xerosis = assay: Antimicrobial action, microbe count (Example 6); type: cell-based; settings: for Δlog: t24 h
Description: as §1, §2, §3, §4, §5

Aspergillus brasiliensis = assay: Antimicrobial action, microbe count (Example 6); type: cell-based; settings: H2O (12% of ethanol); for Δlog: count after 48 h; for Microbe count t24 h: count carried out after 48 h
Description: as §1, §2, §3, §4, §5

[5] = Densities and viscosities, Ubbelohde viscometer, to estimate spreadability (Example 10); type: physicochemical; settings: 25° C.
Description: Measurement of the Dynamic Viscosities in Order to Estimate the Spreadability at 25° C. After measurement of the densities and kinematic viscosities using an Ubbelohde viscometer, the following dynamic viscosities arise: Since spreadabilities and viscosities of cosmetic emollients correlate well, good spreadabilities can be concluded from the viscosities determined.

Malassezia furfur = assay: Antimicrobial action, microbe count (Example 6); type: cell-based; settings: conc. 1.0%, H2O, count t0 4.0 × 10^2
Description: as §1, §2, §3, §4, §5

[6] = conc. 0.2%, count t0 6.3 × 10^4
[7] = conc. 0.5%, H2O (12% of ethanol), count t0 3.4 × 10^4
[8] = conc. 0.5%, H2O, count t0 3.8 × 10^5
[9] = conc. 0.5%, count t0 6.0 × 10^4
[10] = conc. 0.5%, H2O (12% of ethanol), count t0 2.0 × 10^4
[11] = conc. 0.125%, H2O, count t0 1.0 × 10^6
[12] = conc. 0.5%, H2O (12% of ethanol), count t0 3.5 × 10^4
[13] = conc. 0.5%, count t0 4.6 × 10^4
[14] = conc. 0.5%, count t0 2.0 × 10^4
[15] = 2nd experiment, negative control 0.65
[16] = conc. 1.0%, H2O (12% of ethanol), count t0 6.0 × 10^3
[17] = conc. 0.8%, count t0 1.3 × 10^4
[18] = conc. 1.0%, H2O, count t0 7.8 × 10^5
[19] = conc. 0.5%, H2O, count t0 1.0 × 10^6
[20] = conc. 0.8%, count t0 6.3 × 10^4
[21] = conc. 1.0%, count t0 8.0 × 10^2

Molecule: COC(=O)c1ccc(O)cc1 [Methylparaben, methylparaben, reference compound]
- Microbe count t24 h (Echerichia coli; [6]): 4.8 × 10^3
- Δlog (Echerichia coli; [6]): −1.12

Molecule: CC1CC(OC(=O)C2CCCCC2O)CC(C)(C)C1 (stereo not drawn) [Substance I-10, 2-hydroxycyclohexanecarboxylic acid 3,3,5-trimethylcyclohexyl ester]
- OD20h, optical density of the bacteria suspension after 20 hours (P. acnes (ATCC 6919)): 0.45
- Antioxidation-protection factor (ratio of the induction times with and without test substance) [1]: 1.14
- Final microbe count [2]: 2.0 × 10^3 CFU/ml
- Note: bacteriostatic or bactericidal action [2]: bacteriostatic
- OD20h, optical density of the bacteria suspension after 20 hours ([3]; 1st experiment, negative control 0.80): 0.30

Molecule: CCCCC(CC)COC(=O)C1CCCCC1O (stereo not drawn) [Substance I-9, 2-hydroxycyclohexanecarboxylic acid 2-ethylhexyl ester]
- Microbe count t24 h (Candida albicans; [7]): 1.5 × 10^1
- Δlog (Candida albicans; [7]): −3.36
- Microbe count t24 h (Candida albicans; [8]): 8.0 × 10^6
- Δlog (Candida albicans; [8]): +1.32
- OD20h, optical density of the bacteria suspension after 20 hours (P. acnes (ATCC 6919)): 0.50
- Antioxidation-protection factor (ratio of the induction times with and without test substance) [1]: 1.12
- Final microbe count [2]: 2.0 × 10^3 CFU/ml
- Note: bacteriostatic or bactericidal action [2]: bacteriostatic
- Microbe count t24 h (Staphylococcus aureus; count t0 4.2 × 10^4): 1.4 × 10^2
- Δlog (Staphylococcus aureus; count t0 4.2 × 10^4): −2.48
- Microbe count t24 h (Salmonella enterica; [9]): 1.8 × 10^4
- Δlog (Salmonella enterica; [9]): −0.52
- Microbe count t24 h [4]: 6.0 × 10^3
- Δlog ([4]; t24 h): −0.75
- Microbe count t24 h (Pseudomonas aeruginosa): 9.0 × 10^3
- Δlog (Pseudomonas aeruginosa; t24 h): −0.88
- Microbe count t24 h (Propionibacterium acnes; [10]): 8.0 × 10^2
- Δlog (Propionibacterium acnes; [10]): −1.40
- Microbe count t24 h (Serratia marcescens): 9.0 × 10^3
- Δlog (Serratia marcescens; t24 h): −0.88
- Microbe count t24 h (Corynebacterium xerosis; [11]): 5.0 × 10^6
- Δlog (Corynebacterium xerosis; [11]): +0.70
- Microbe count t24 h (Corynebacterium xerosis; [12]): 0
- Δlog (Corynebacterium xerosis; [12]): −4.54
- Microbe count t24 h (Echerichia coli; [13]): 3.8 × 10^2
- Δlog (Echerichia coli; [13]): −2.08
- Δlog (Aspergillus brasiliensis; [14]): −1.40
- Microbe count t24 h (Aspergillus brasiliensis; [14]): 8.0 × 10^2
- Density [5]: 0.9752 g/mL
- Dynamic viscosity (kinematic viscosity × density) [5]: 32.2 mPas
- Kinematic viscosity ([5]; Ubbelohde viscometer): 33.0 mm^2/s
- OD20h, optical density of the bacteria suspension after 20 hours [3, 15]: 0.30

Molecule: tocopherol [reference compound]
- Antioxidation-protection factor (ratio of the induction times with and without test substance) [1]: 1.00

Molecule: CC(C)(C)C1CCC(O)CC1 (stereo not drawn) [4-t-butyl-1-cyclohexanol, reference compound]
- Antioxidation-protection factor (ratio of the induction times with and without test substance) [1]: 1.05

Molecule: CCCCOC(=O)C1CCC(O)CC1 (stereo not drawn) [Substance I-20, 4-hydroxycyclohexanecarboxylic acid butyl ester]
- Microbe count t24 h (Candida albicans; [8]): 0
- Δlog (Candida albicans; [8]): −5.58
- Microbe count t24 h (Candida albicans; [16]): 0
- Δlog (Candida albicans; [16]): −3.78
- OD20h, optical density of the bacteria suspension after 20 hours (P. acnes (ATCC 6919)): 0.70
- Final microbe count [2]: 0 CFU/ml
- Note: bacteriostatic or bactericidal action [2]: bactericidal
- Microbe count t24 h (Staphylococcus aureus; count t0 1.1 × 10^4): 0
- Δlog (Staphylococcus aureus; count t0 1.1 × 10^4): −4.04
- Microbe count t24 h (Salmonella enterica; [17]): 0
- Δlog (Salmonella enterica; [17]): −4.11
- Microbe count t24 h (Propionibacterium acnes; [18]): 1.3 × 10^4
- Δlog (Propionibacterium acnes; [18]): −1.78
- Microbe count t24 h (Corynebacterium xerosis; [19]): 0
- Δlog (Corynebacterium xerosis; [19]): −6.00
- Microbe count t24 h (Echerichia coli; [20]): 0
- Δlog (Echerichia coli; [20]): −4.80
- Δlog (Aspergillus brasiliensis; [21]): −0.60
- Microbe count t24 h (Aspergillus brasiliensis; [21]): 2.0 × 10^2
- Microbe count t24 h (Malassezia furfur): 0
- Δlog (Malassezia furfur; t24 h): −2.60
- OD20h, optical density of the bacteria suspension after 20 hours [3, 15]: 0.20
